Data reported in patent US10632106B2, “Methods of cancer treatment with 2-(1′H-Indole-3′-carbonyl)-thiazole-4-carboxylic acid methyl ester” (Ariagen, Inc., priority 2009, dated 2020).

How the values were obtained:
[1] = test system: S180 (mouse soft tissue cancer/sarcoma) homografts; experiment: S180 homograft (syngeneic) growth inhibition in ICR mice; type: in vivo; conditions: ITE 200 mg/kg i.p. once daily
Description: (§1) All the procedures related to animal handling, care, and the treatment in the study were performed following guidelines of KeyGen Biotechn Co., Ltd. (Nanjing, China), a contract research organization we hired, based on the guidance of the Association for Assessment and Accreditation of Laboratory Animal Care (AAALAC). Animals were checked for any effects of tumor growth and drug treatment on normal behavior such as mobility, food and water consumption, body weight gain/loss (bodyweights were measured every two days), eye/hair matting, and any other abnormal effect. Death and observed clinical signs were recorded. Individual animals with a tumor volume exceeding 3,000 mm^3 or animals of a group with a mean tumor volume exceeding 2,000 mm^3 were euthanized. In addition, animals showing signs of severe distress and/or pain or losing the capability of accessing adequate food or water were humanely sacrificed.
(§2) Cell lines HCT116, Siha, MFC were cultured in DMEM medium (high glucose) supplemented with 10% fetal bovine serum (FBS), SW116 and T24 in RPMI-1640 medium with 10% FBS, M14 and A375 in DMEM medium (high glucose) with 10% calf serum (CS), SGC7901 and Ketr-3 in RPMI-1640 medium with 10% CS, and CFPAC-1 in IMDM medium with 10% FBS. All of the cells were cultured, in the presence of 100 U/ml penicillin and 100 μg/ml streptomycin, at 37° C. in an atmosphere of 5% CO2 in air. […] The cells growing in an exponential phase were harvested and counted for tumor inoculation. Cell lines 5180 and U14 were maintained in ascites (peritoneal cavity fluid) of mice and were harvested and counted for tumor inoculation. […]
(§3) Tumor volume was measured every two days in two dimensions using a caliper and the volume was calculated with a formula of: V=0.5 a×b^2, where a and b are the long and short diameter (in mm) of a tumor, respectively. […] The TGD was calculated as: TGD=T−C, where T was the time (in days) required for tumors in a drug treated group to reach a predetermined mean tumor volume and C the time (in days) in the control group to reach the same volume. […]

[2] = test system: SGC7901 (human stomach cancer) xenografts; experiment: SGC7901 xenograft growth inhibition; type: in vivo; conditions: ITE 100-200 mg/kg i.p. once daily
Description: as §1, §2, §3

[3] = end of therapy relative to beginning

COC(=O)c1csc(C(=O)c2c[nH]c3ccccc23)n1 [ITE, 2-(1′H-indole-3′-carbonyl)-thiazole-4-carboxylic acid methyl ester]
TGD ([1]; TGD at Vol. 2,000): 1.5 days
TGI (%) ([1]; TGI at day 8, TGI=(1−ΔT/ΔC)×100%): 33%
Weight Loss [1, 3]: 9%
TGD ([2]; TGD at Vol. 1,000): 4 days
TGI (%) ([2]; TGI at day 18, TGI=(1−ΔT/ΔC)×100%): 50%
Weight Loss [2, 3]: 12%
